Test results taken from the NIST ThermoML archive (doi:10.1021/je100472t).
Numbers after ± are expanded uncertainties.

Details: 101.33 kPa, Liquid; for speed of sound: Pulse-echo method; for mass density: Vibrating tube method

Structure (SMILES) | speed of sound (293.15 K) [m/s] | mass density (293.15 K) [kg/m3] | speed of sound (298.15 K) [m/s] | mass density (298.15 K) [kg/m3] | speed of sound (303.15 K) [m/s] | mass density (303.15 K) [kg/m3]
CNc1ccccc1 [N-methylaniline] | 1582.5 ± 2.1 | 986.295 ± 0.82 | 1563.9 ± 2.1 | 982.278 ± 0.82 | 1546 ± 2.1 | 978.284 ± 0.81
Nc1ccccc1 [aniline] | 1657 ± 0.94 | 1021.84 ± 0.092 | 1637.8 ± 0.9 | 1017.51 ± 0.09 | 1619.3 ± 0.9 | 1013.23 ± 0.088
CCC(C)=O [butanone] | 1212 ± 0.8 | 805.08 ± 0.14 | 1190.8 ± 0.8 | 799.861 ± 0.14 | 1170.6 ± 0.8 | 794.636 ± 0.14
c1ccncc1 [pyridine] | 1436.6 ± 0.9 | 983.163 ± 0.087 | 1416.2 ± 0.9 | 978.138 ± 0.089 | 1396.9 ± 0.9 | 973.148 ± 0.09
